Measurements taken from US6573244B1 (priority 1999, dated 2003).
Ends that are not written are not given here.

How the values were obtained:
[1] = biological target: BttxB (Clostridium botulinum, UniProt P10844); assay: biochemical
[2] = tested on: Bttxs; conditions: cited from earlier work
[3] = rat, in vivo, ip
[4] = biological target: T1, Botulinum toxin B, P10844; assay: cell-based or functional assay
T1 chain: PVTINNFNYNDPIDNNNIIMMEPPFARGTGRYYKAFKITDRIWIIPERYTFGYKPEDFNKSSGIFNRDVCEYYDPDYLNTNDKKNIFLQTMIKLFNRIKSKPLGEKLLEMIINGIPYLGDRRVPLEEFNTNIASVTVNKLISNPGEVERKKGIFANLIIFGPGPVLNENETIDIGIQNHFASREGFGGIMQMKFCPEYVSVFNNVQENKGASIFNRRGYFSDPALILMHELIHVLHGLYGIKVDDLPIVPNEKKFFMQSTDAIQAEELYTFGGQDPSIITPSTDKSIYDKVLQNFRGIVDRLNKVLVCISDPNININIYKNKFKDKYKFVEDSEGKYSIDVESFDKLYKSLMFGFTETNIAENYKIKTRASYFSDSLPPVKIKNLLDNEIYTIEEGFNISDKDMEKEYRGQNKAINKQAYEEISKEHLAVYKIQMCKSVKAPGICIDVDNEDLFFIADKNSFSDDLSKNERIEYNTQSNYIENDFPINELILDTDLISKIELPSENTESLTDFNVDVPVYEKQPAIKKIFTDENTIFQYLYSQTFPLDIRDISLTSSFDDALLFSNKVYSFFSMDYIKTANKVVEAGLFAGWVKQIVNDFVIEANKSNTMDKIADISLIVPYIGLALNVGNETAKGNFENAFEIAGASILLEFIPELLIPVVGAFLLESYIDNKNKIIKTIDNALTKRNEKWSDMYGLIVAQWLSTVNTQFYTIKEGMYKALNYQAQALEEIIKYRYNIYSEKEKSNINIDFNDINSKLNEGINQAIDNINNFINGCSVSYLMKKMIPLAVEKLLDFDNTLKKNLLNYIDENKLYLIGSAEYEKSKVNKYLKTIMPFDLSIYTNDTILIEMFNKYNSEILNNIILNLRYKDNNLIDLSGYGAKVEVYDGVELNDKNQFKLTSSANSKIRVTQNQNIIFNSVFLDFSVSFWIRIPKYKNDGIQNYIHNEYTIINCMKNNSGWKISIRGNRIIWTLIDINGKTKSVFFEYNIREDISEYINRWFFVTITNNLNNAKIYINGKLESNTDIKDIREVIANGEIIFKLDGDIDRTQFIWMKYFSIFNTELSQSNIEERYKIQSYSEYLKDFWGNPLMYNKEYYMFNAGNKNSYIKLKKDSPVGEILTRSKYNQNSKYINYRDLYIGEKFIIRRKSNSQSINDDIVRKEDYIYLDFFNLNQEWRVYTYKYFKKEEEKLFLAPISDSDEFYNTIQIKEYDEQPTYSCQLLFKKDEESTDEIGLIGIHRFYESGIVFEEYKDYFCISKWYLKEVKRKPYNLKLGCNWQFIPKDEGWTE

AGRGKQGGKVRAKAKTRSSRAGLQFPVGRVHRLLRK [Peptide 36]
substrate of BttxB or not [1]: not substrates

ELDDRADALQ [Peptide V2]
inhibition of Bttxs, in words [2]: found to inhibit Bttx activity

TRSRAKGLQFPGLLVHRLLRKGNY [Peptide 05P]
IC50 [1]: < 200000 nM

TRSSRAGLQFPVGRVHRLLRKGNY [Peptide 24]
substrate of BttxB or not [1]: not substrates

CC(C)C[C@H](NP(=O)(O)O[C@@H]1O[C@@H](C)[C@H](O)[C@@H](O)[C@H]1O)C(=O)N[C@@H](Cc1c[nH]c2ccccc12)C(=O)O [phosphoramidon]
inhibition of Bttxs, in words [2]: not effective inhibitors

CC(C)C[C@H](NC(=O)CNC(=O)[C@H](C)NC(=O)[C@H](CCCNC(=N)N)NC(=O)[C@H](CO)NC(=O)[C@H](CO)NC(=O)[C@H](CCCNC(=N)N)NC(=O)[C@@H](NC(=O)[C@H](CCCCN)NC(=O)[C@H](C)NC(=O)[C@H](CCCCN)NC(=O)[C@H](C)NC(=O)[C@H](CCCNC(=N)N)NC(=O)[C@@H](NC(=O)[C@H](CCCCN)NC(=O)CNC(=O)CNC(=O)[C@H](CCC(N)=O)NC(=O)[C@H](CCCCN)NC(=O)CNC(=O)[C@H](CCCNC(=N)N)NC(=O)CNC(=O)[C@H](C)N)C(C)C)[C@@H](C)O)C(=O)N[C@@H](CCC(N)=O)C(=O)N[C@@H](Cc1ccccc1)C(=O)N1CCC[C@H]1C(=O)N[C@H](C(=O)NCC(=O)N[C@@H](CCCNC(=N)N)C(=O)N[C@H](C(=O)N[C@@H](Cc1c[nH]cn1)C(=O)N[C@@H](CCCNC(=N)N)C(=O)N[C@@H](CC(C)C)C(=O)N[C@@H](CC(C)C)C(=O)N[C@@H](CCCNC(=N)N)C(=O)N[C@@H](CCCCN)C(=O)NCC(=O)N[C@@H](CC(N)=O)C(=O)N[C@@H](Cc1ccc(O)cc1)C(=O)O)C(C)C)C(C)C [Buforin I]
IC50 [1]: 1000 nM | mode of inhibition of BttxB activity [1]: dose-dependently and competitively inhibits | substrate of BttxB or not [1]: not to be a substrate | plateau (time to maximal-plateau level) [3]: ≤ 40 min | time the maximal-plateau level was maintained [3]: up to 4 h | time to reach ½ the absorbed maximal value [3]: 7.7 min | uptake into the blood stream, in words [3]: rapid uptake

C[C@H](CS)C(=O)N1CCC[C@H]1C(=O)O [captopril]
inhibition of Bttxs, in words [2]: not effective inhibitors

RPKPQQFFGLM [Substance P]
inhibition of BttxB, in words [1]: weak inhibitor | substrate of BttxB or not [1]: not a substrate

TRSRAKGLQFPGLLVHRLLRKGNY (modifications not checked) [Peptide 05P]
inhibition of botulinum B proteolytic activity [4]: < 200 µM | potency of inhibition relative to Substance P [4]: < 4 fold
